We go through one substance from patent US6492337B1, “Galactosylceramide, glucosylceramide, lactosylceramide, and specific catchers therefor for use in the prophylaxis or therapy of prediabetes, diabetes and/or associated complication” (A+ Science AB, priority 1997, dated 2002).

Test [1] deals with human mononuclear cells (monocytes and T-cells). Conditions: compared to incubation with LPS and PHA without galactosylceramide; cited from earlier work.
The test system of test [2] is NOD mouse model of type 1 diabetes. The test is described as follows: Intrathymic injection in NOD mice, later diabetes incidence. In kind it is in vivo. How it is done:
The NOD mouse model is an animal model of type 1 diabetes. The mice develop spontaneously diabetes within 200 days of life with an incidence of 50% or more. In the present study the animals were examined daily and once a week checked for glucosuria. They were diagnosed as diabetic if their blood glucose values was higher than 200 mg glucose per 100 ml. When diagnosed as diabetics the animals were sacrificed. Otherwise the remaining non-diabetic animals were sacrificed at the end 5 of the study after 200 days of age.
Four groups of animals each containing between 30 and 40 animals were investigated: The animals were injected intrathymically when 3 weeks old. There was injected […] galactosylceramide in 100 μl vehicle (PBS). The control mice were treated with the 100 μl PBS alone. In another experiment liposome preparation of galactosylceramide was made using phosphatidylcholin and galactosylceramide. The control group was treated with phosphatidylcholin and PBS alone.

For the substance galactosylceramide, in test [1], the IL-6 production result is “increased” and the TNF production result was “increased”. Also, in test [2] (both studies pooled, 31 of 70 mice, PBS mice 57.4%), the “mice that developed diabetes, two studies together” value stood at 44.3%. For the same substance, in test [2] (first study, pure form), the “time of diabetes development versus control mice” value is “occurred later than among the control mice”. Moreover, the “mice that developed diabetes” value in test [2] (first study, pure form in PBS, intrathymic injection at 3 weeks old, followed to 200 days of age, 17 of 37 mice, PBS control 56.8%) is listed as 45.9%.
